Measurements as given in ChEMBL document CHEMBL3046479, “Preparation and antimicrobial activity evaluation of some new bi- and triheterocyclic azoles” (2013).
Values after ≈ are worked out from the molar mass of the structure shown. Active and inactive are the calls of the source. The rule behind the calls is not given here.

tested on: Candida albicans; test: Antimicrobial activity against Candida albicans ATCC 60193 assessed as growth inhibition after 18-24 hr by broth double microdilution method; type: functional

| Structure (SMILES) | MIC |
| --- | --- |
| COc1ccc(/C=N/NC(=O)Cn2nc(C)n(/N=C/c3ccncc3)c2=O)cc1O | 125 µg/mL (≈ 305 µM) |
| Cc1nn(-c2ccc(/N=C/c3ccc(Br)cc3)cc2F)c(=O)n1CCCn1ccnc1 | inactive |
| Cc1nn(CC(=O)N/N=c2\sc(-c3ccc(Cl)cc3)cn2-c2ccccc2)c(=O)n1/N=C/c1ccncc1 | 125 µg/mL (≈ 229 µM) |
| Cc1nn(CC(=O)NN)c(=O)n1/N=C/c1ccncc1 | 500 µg/mL (≈ 1820 µM) |
| Cc1nn(CNCc2ccco2)c(=O)n1CCCn1ccnc1 | 500 µg/mL (≈ 1580 µM) |
| Cc1nn(-c2ccc(/N=C3\SCC(=O)N3Cc3ccccc3)cc2F)c(=O)n1CCCn1ccnc1 | 500 µg/mL (≈ 989 µM) |
| Cc1n[nH]c(=O)n1/N=C/c1ccncc1 | 125 µg/mL (≈ 615 µM) |
| COc1ccc(/C=N/NC(=O)Cn2nc(C)n(/N=C/c3ccncc3)c2=O)cc1 | 250 µg/mL (≈ 635 µM) |
| Cc1nn(CC(=O)NN)c(=O)n1CCCn1ccnc1 | inactive |
| Cc1nn(CC(=O)NNC(=S)Nc2ccccc2)c(=O)n1/N=C/c1ccncc1 | inactive |
| Cc1nn(Cc2nnc(S)n2-c2ccccc2)c(=O)n1/N=C/c1ccncc1 | 250 µg/mL (≈ 637 µM) |

tested on: Mycolicibacterium smegmatis; test: Antimicrobial activity against Mycobacterium smegmatis ATCC 607 assessed as growth inhibition after 48-72 hr by broth double microdilution method; type: functional

| Structure (SMILES) | MIC |
| --- | --- |
| COc1ccc(/C=N/NC(=O)Cn2nc(C)n(/N=C/c3ccncc3)c2=O)cc1O | inactive |
| Cc1nn(-c2ccc(/N=C/c3ccc(Br)cc3)cc2F)c(=O)n1CCCn1ccnc1 | 0.24 µg/mL (≈ 0.497 µM) |
| Cc1nn(CC(=O)N/N=c2\sc(-c3ccc(Cl)cc3)cn2-c2ccccc2)c(=O)n1/N=C/c1ccncc1 | inactive |
| Cc1nn(CC(=O)NN)c(=O)n1/N=C/c1ccncc1 | 250 µg/mL (≈ 908 µM) |
| Cc1nn(CNCc2ccco2)c(=O)n1CCCn1ccnc1 | 125 µg/mL (≈ 395 µM) |
| Cc1nn(-c2ccc(/N=C3\SCC(=O)N3Cc3ccccc3)cc2F)c(=O)n1CCCn1ccnc1 | 125 µg/mL (≈ 247 µM) |
| Cc1n[nH]c(=O)n1/N=C/c1ccncc1 | 125 µg/mL (≈ 615 µM) |
| COc1ccc(/C=N/NC(=O)Cn2nc(C)n(/N=C/c3ccncc3)c2=O)cc1 | inactive |
| Cc1nn(CC(=O)NN)c(=O)n1CCCn1ccnc1 | 125 µg/mL (≈ 448 µM) |
| Cc1nn(CC(=O)NNC(=S)Nc2ccccc2)c(=O)n1/N=C/c1ccncc1 | inactive |
| Cc1nn(Cc2nnc(S)n2-c2ccccc2)c(=O)n1/N=C/c1ccncc1 | inactive |

tested on: Bacillus cereus; test: Antimicrobial activity against Bacillus cereus 709 Roma assessed as growth inhibition after 18-24 hr by broth double microdilution method; type: functional

| Structure (SMILES) | MIC |
| --- | --- |
| COc1ccc(/C=N/NC(=O)Cn2nc(C)n(/N=C/c3ccncc3)c2=O)cc1O | inactive |
| Cc1nn(-c2ccc(/N=C/c3ccc(Br)cc3)cc2F)c(=O)n1CCCn1ccnc1 | inactive |
| Cc1nn(CC(=O)N/N=c2\sc(-c3ccc(Cl)cc3)cn2-c2ccccc2)c(=O)n1/N=C/c1ccncc1 | 125 µg/mL (≈ 229 µM) |
| Cc1nn(CC(=O)NN)c(=O)n1/N=C/c1ccncc1 | inactive |
| Cc1nn(CNCc2ccco2)c(=O)n1CCCn1ccnc1 | 125 µg/mL (≈ 395 µM) |
| Cc1nn(-c2ccc(/N=C3\SCC(=O)N3Cc3ccccc3)cc2F)c(=O)n1CCCn1ccnc1 | inactive |
| Cc1n[nH]c(=O)n1/N=C/c1ccncc1 | inactive |
| COc1ccc(/C=N/NC(=O)Cn2nc(C)n(/N=C/c3ccncc3)c2=O)cc1 | inactive |
| Cc1nn(CC(=O)NN)c(=O)n1CCCn1ccnc1 | inactive |
| Cc1nn(CC(=O)NNC(=S)Nc2ccccc2)c(=O)n1/N=C/c1ccncc1 | inactive |
| Cc1nn(Cc2nnc(S)n2-c2ccccc2)c(=O)n1/N=C/c1ccncc1 | inactive |

tested on: Staphylococcus aureus; test: Antimicrobial activity against Staphylococcus aureus ATCC 25923 assessed as growth inhibition after 18-24 hr by broth double microdilution method; type: functional

| Structure (SMILES) | MIC |
| --- | --- |
| COc1ccc(/C=N/NC(=O)Cn2nc(C)n(/N=C/c3ccncc3)c2=O)cc1O | inactive |
| Cc1nn(-c2ccc(/N=C/c3ccc(Br)cc3)cc2F)c(=O)n1CCCn1ccnc1 | inactive |
| Cc1nn(CC(=O)N/N=c2\sc(-c3ccc(Cl)cc3)cn2-c2ccccc2)c(=O)n1/N=C/c1ccncc1 | 125 µg/mL (≈ 229 µM) |
| Cc1nn(CC(=O)NN)c(=O)n1/N=C/c1ccncc1 | inactive |
| Cc1nn(CNCc2ccco2)c(=O)n1CCCn1ccnc1 | inactive |
| Cc1nn(-c2ccc(/N=C3\SCC(=O)N3Cc3ccccc3)cc2F)c(=O)n1CCCn1ccnc1 | inactive |
| Cc1n[nH]c(=O)n1/N=C/c1ccncc1 | inactive |
| COc1ccc(/C=N/NC(=O)Cn2nc(C)n(/N=C/c3ccncc3)c2=O)cc1 | inactive |
| Cc1nn(CC(=O)NN)c(=O)n1CCCn1ccnc1 | inactive |
| Cc1nn(CC(=O)NNC(=S)Nc2ccccc2)c(=O)n1/N=C/c1ccncc1 | inactive |
| Cc1nn(Cc2nnc(S)n2-c2ccccc2)c(=O)n1/N=C/c1ccncc1 | inactive |

tested on: Enterococcus faecalis; test: Antimicrobial activity against Enterococcus faecalis ATCC 29212 assessed as growth inhibition after 18-24 hr by broth double microdilution method; type: functional

| Structure (SMILES) | MIC |
| --- | --- |
| COc1ccc(/C=N/NC(=O)Cn2nc(C)n(/N=C/c3ccncc3)c2=O)cc1O | inactive |
| Cc1nn(-c2ccc(/N=C/c3ccc(Br)cc3)cc2F)c(=O)n1CCCn1ccnc1 | inactive |
| Cc1nn(CC(=O)N/N=c2\sc(-c3ccc(Cl)cc3)cn2-c2ccccc2)c(=O)n1/N=C/c1ccncc1 | inactive |
| Cc1nn(CC(=O)NN)c(=O)n1/N=C/c1ccncc1 | inactive |
| Cc1nn(CNCc2ccco2)c(=O)n1CCCn1ccnc1 | inactive |
| Cc1nn(-c2ccc(/N=C3\SCC(=O)N3Cc3ccccc3)cc2F)c(=O)n1CCCn1ccnc1 | inactive |
| Cc1n[nH]c(=O)n1/N=C/c1ccncc1 | inactive |
| COc1ccc(/C=N/NC(=O)Cn2nc(C)n(/N=C/c3ccncc3)c2=O)cc1 | inactive |
| Cc1nn(CC(=O)NN)c(=O)n1CCCn1ccnc1 | inactive |
| Cc1nn(CC(=O)NNC(=S)Nc2ccccc2)c(=O)n1/N=C/c1ccncc1 | inactive |
| Cc1nn(Cc2nnc(S)n2-c2ccccc2)c(=O)n1/N=C/c1ccncc1 | inactive |

tested on: Listeria monocytogenes; test: Antimicrobial activity against Listeria monocytogenes ATCC 43251 assessed as growth inhibition after 18-24 hr by broth double microdilution method; type: functional

| Structure (SMILES) | MIC |
| --- | --- |
| COc1ccc(/C=N/NC(=O)Cn2nc(C)n(/N=C/c3ccncc3)c2=O)cc1O | inactive |
| Cc1nn(-c2ccc(/N=C/c3ccc(Br)cc3)cc2F)c(=O)n1CCCn1ccnc1 | inactive |
| Cc1nn(CC(=O)N/N=c2\sc(-c3ccc(Cl)cc3)cn2-c2ccccc2)c(=O)n1/N=C/c1ccncc1 | inactive |
| Cc1nn(CC(=O)NN)c(=O)n1/N=C/c1ccncc1 | inactive |
| Cc1nn(CNCc2ccco2)c(=O)n1CCCn1ccnc1 | inactive |
| Cc1nn(-c2ccc(/N=C3\SCC(=O)N3Cc3ccccc3)cc2F)c(=O)n1CCCn1ccnc1 | inactive |
| Cc1n[nH]c(=O)n1/N=C/c1ccncc1 | inactive |
| COc1ccc(/C=N/NC(=O)Cn2nc(C)n(/N=C/c3ccncc3)c2=O)cc1 | inactive |
| Cc1nn(CC(=O)NN)c(=O)n1CCCn1ccnc1 | inactive |
| Cc1nn(CC(=O)NNC(=S)Nc2ccccc2)c(=O)n1/N=C/c1ccncc1 | inactive |
| Cc1nn(Cc2nnc(S)n2-c2ccccc2)c(=O)n1/N=C/c1ccncc1 | inactive |

tested on: Pseudomonas aeruginosa; test: Antimicrobial activity against Pseudomonas aeruginosa ATCC 10145 assessed as growth inhibition after 18-24 hr by broth double microdilution method; type: functional

| Structure (SMILES) | MIC |
| --- | --- |
| COc1ccc(/C=N/NC(=O)Cn2nc(C)n(/N=C/c3ccncc3)c2=O)cc1O | inactive |
| Cc1nn(-c2ccc(/N=C/c3ccc(Br)cc3)cc2F)c(=O)n1CCCn1ccnc1 | inactive |
| Cc1nn(CC(=O)N/N=c2\sc(-c3ccc(Cl)cc3)cn2-c2ccccc2)c(=O)n1/N=C/c1ccncc1 | inactive |
| Cc1nn(CC(=O)NN)c(=O)n1/N=C/c1ccncc1 | inactive |
| Cc1nn(CNCc2ccco2)c(=O)n1CCCn1ccnc1 | inactive |
| Cc1nn(-c2ccc(/N=C3\SCC(=O)N3Cc3ccccc3)cc2F)c(=O)n1CCCn1ccnc1 | inactive |
| Cc1n[nH]c(=O)n1/N=C/c1ccncc1 | inactive |
| COc1ccc(/C=N/NC(=O)Cn2nc(C)n(/N=C/c3ccncc3)c2=O)cc1 | inactive |
| Cc1nn(CC(=O)NN)c(=O)n1CCCn1ccnc1 | inactive |
| Cc1nn(CC(=O)NNC(=S)Nc2ccccc2)c(=O)n1/N=C/c1ccncc1 | inactive |
| Cc1nn(Cc2nnc(S)n2-c2ccccc2)c(=O)n1/N=C/c1ccncc1 | inactive |

tested on: Yersinia pseudotuberculosis; test: Antimicrobial activity against Yersinia pseudotuberculosis ATCC 911 assessed as growth inhibition after 18-24 hr by broth double microdilution method; type: functional

| Structure (SMILES) | MIC |
| --- | --- |
| COc1ccc(/C=N/NC(=O)Cn2nc(C)n(/N=C/c3ccncc3)c2=O)cc1O | inactive |
| Cc1nn(-c2ccc(/N=C/c3ccc(Br)cc3)cc2F)c(=O)n1CCCn1ccnc1 | inactive |
| Cc1nn(CC(=O)N/N=c2\sc(-c3ccc(Cl)cc3)cn2-c2ccccc2)c(=O)n1/N=C/c1ccncc1 | inactive |
| Cc1nn(CC(=O)NN)c(=O)n1/N=C/c1ccncc1 | inactive |
| Cc1nn(CNCc2ccco2)c(=O)n1CCCn1ccnc1 | inactive |
| Cc1nn(-c2ccc(/N=C3\SCC(=O)N3Cc3ccccc3)cc2F)c(=O)n1CCCn1ccnc1 | inactive |
| Cc1n[nH]c(=O)n1/N=C/c1ccncc1 | inactive |
| COc1ccc(/C=N/NC(=O)Cn2nc(C)n(/N=C/c3ccncc3)c2=O)cc1 | inactive |
| Cc1nn(CC(=O)NN)c(=O)n1CCCn1ccnc1 | 125 µg/mL (≈ 448 µM) |
| Cc1nn(CC(=O)NNC(=S)Nc2ccccc2)c(=O)n1/N=C/c1ccncc1 | inactive |
| Cc1nn(Cc2nnc(S)n2-c2ccccc2)c(=O)n1/N=C/c1ccncc1 | inactive |

tested on: Escherichia coli; test: Antimicrobial activity against Escherichia coli ATCC 35218 assessed as growth inhibition after 18-24 hr by broth double microdilution method; type: functional

| Structure (SMILES) | MIC |
| --- | --- |
| COc1ccc(/C=N/NC(=O)Cn2nc(C)n(/N=C/c3ccncc3)c2=O)cc1O | inactive |
| Cc1nn(-c2ccc(/N=C/c3ccc(Br)cc3)cc2F)c(=O)n1CCCn1ccnc1 | inactive |
| Cc1nn(CC(=O)N/N=c2\sc(-c3ccc(Cl)cc3)cn2-c2ccccc2)c(=O)n1/N=C/c1ccncc1 | inactive |
| Cc1nn(CC(=O)NN)c(=O)n1/N=C/c1ccncc1 | inactive |
| Cc1nn(CNCc2ccco2)c(=O)n1CCCn1ccnc1 | inactive |
| Cc1nn(-c2ccc(/N=C3\SCC(=O)N3Cc3ccccc3)cc2F)c(=O)n1CCCn1ccnc1 | inactive |
| Cc1n[nH]c(=O)n1/N=C/c1ccncc1 | inactive |
| COc1ccc(/C=N/NC(=O)Cn2nc(C)n(/N=C/c3ccncc3)c2=O)cc1 | inactive |
| Cc1nn(CC(=O)NN)c(=O)n1CCCn1ccnc1 | 125 µg/mL (≈ 448 µM) |
| Cc1nn(CC(=O)NNC(=S)Nc2ccccc2)c(=O)n1/N=C/c1ccncc1 | inactive |
| Cc1nn(Cc2nnc(S)n2-c2ccccc2)c(=O)n1/N=C/c1ccncc1 | inactive |

tested on: Saccharomyces cerevisiae; test: Antimicrobial activity against Saccharomyces cerevisiae RSKK 251 assessed as growth inhibition after 18-24 hr by broth double microdilution method; type: functional

| Structure (SMILES) | MIC |
| --- | --- |
| COc1ccc(/C=N/NC(=O)Cn2nc(C)n(/N=C/c3ccncc3)c2=O)cc1O | inactive |
| Cc1nn(-c2ccc(/N=C/c3ccc(Br)cc3)cc2F)c(=O)n1CCCn1ccnc1 | inactive |
| Cc1nn(CC(=O)N/N=c2\sc(-c3ccc(Cl)cc3)cn2-c2ccccc2)c(=O)n1/N=C/c1ccncc1 | 250 µg/mL (≈ 459 µM) |
| Cc1nn(CC(=O)NN)c(=O)n1/N=C/c1ccncc1 | inactive |
| Cc1nn(CNCc2ccco2)c(=O)n1CCCn1ccnc1 | inactive |
| Cc1nn(-c2ccc(/N=C3\SCC(=O)N3Cc3ccccc3)cc2F)c(=O)n1CCCn1ccnc1 | 500 µg/mL (≈ 989 µM) |
| Cc1n[nH]c(=O)n1/N=C/c1ccncc1 | 500 µg/mL (≈ 2460 µM) |
| COc1ccc(/C=N/NC(=O)Cn2nc(C)n(/N=C/c3ccncc3)c2=O)cc1 | inactive |
| Cc1nn(CC(=O)NN)c(=O)n1CCCn1ccnc1 | inactive |
| Cc1nn(CC(=O)NNC(=S)Nc2ccccc2)c(=O)n1/N=C/c1ccncc1 | inactive |
| Cc1nn(Cc2nnc(S)n2-c2ccccc2)c(=O)n1/N=C/c1ccncc1 | inactive |
